This note sets out measurements from patent US20230146455A1, “TREATMENT OF INFLAMMATORY DISEASES WITH PEPTIDES AND PHARMACEUTICAL COMPOSITIONS” (Yuyu Pharma, Inc., priority 2020, published 2023).

“And” between values parts separate entries of the source, which are not always exact repeats. Identical values can stand only once. Where a SMILES comes first, the peptide text is derived from it. [ ]: non-standard residue; d: D form. Hyp = O=C(O)[C@@H]1C[C@@H](O)CN1

The test deals with TIMP-1. As to the kind of experiment: Example 8 main study Luminex, LPS hPBMCs: TIMP-1. The format is cell-based, human. On the procedure: Human PBMCs were pretreated with YY-101, YDE-011, YDE-043 or reference compound; Xiidra® at various concentration (ranging from […] to 500 nM) for 2 h before stimulation. An equal volume of 0.5% DMSO was used as a vehicle control. Then, the cells were treated with LPS at 5 ug/ml, which was selected based on the pilot study. The supernatants from treated cells were harvested at 24 h and placed in a 96 well for Luminex cytokine & chemokine profiling using a Luminex 200 multiplex assay (Luminex; R&D system, USA).
The main study arm with triplicate wells per group in a 24-well plate: • 1. Blank • 2. PBMC: 0.5% DMSO • 3. PBMC+LPS (5 ug/ml) • 4. PBMC+YY-101 500 nM • 5. PBMC+YY-101 50 nM • 6. PBMC+YY-101 5 nM • 7. PBMC+YY-101 0.5 nM • 8. PBMC+LPS (5 ug/ml)+Xiidra® 500 nM • 9. PBMC+LPS (5 ug/ml)+Xiidra® 50 nM • 10. PBMC+LPS (5 ug/ml)+Xiidra® 5 nM • 11. PBMC+LPS (5 ug/ml)+Xiidra® 0.5 nM • 12. PBMC+LPS (5 ug/ml)+Xiidra® 0.05 nM • 13. PBMC+LPS (5 ug/ml)+Xiidra® 0.005 nM • 14. PBMC+LPS (5 ug/ml)+YY-101 500 nM • 15. PBMC+LPS (5 ug/ml)+YY-101 50 nM • 16. PBMC+LPS (5 ug/ml)+YY-101 5 nM • 17. PBMC+LPS (5 ug/ml)+YY-101 0.5 nM • 18. PBMC+LPS (5 ug/ml)+YY-101 0.05 nM • 19. PBMC+LPS (5 ug/ml)+YY-101 0.005 nM • 20. PBMC+LPS (5 ug/ml)+YDE-011 500 nM • 21. PBMC+LPS (5 ug/ml)+YDE-011 50 nM • 22. PBMC+LPS (5 ug/ml)+YDE-011 5 nM • 23. PBMC+LPS (5 ug/ml)+YDE-011 0.5 nM • 24. PBMC+LPS (5 ug/ml)+YDE-011 0.05 nM • 25. PBMC+LPS (5 ug/ml)+YDE-011 0.005 nM • 26. PBMC+LPS (5 ug/ml)+YDE-043 500 nM • 27. PBMC+LPS (5 ug/ml)+YDE-043 50 nM • 28. PBMC+LPS (5 ug/ml)+YDE-043 5 nM • 29. PBMC+LPS (5 ug/ml)+YDE-043 0.5 nM • 30. PBMC+LPS (5 ug/ml)+YDE-043 0.05 nM • 31. PBMC+LPS (5 ug/ml)+YDE-043 0.005 nM
Multiplex assay was used to measure 30 cytokines and chemokines. The 1:200 diluted cell supernatant and serial dilution of the standard were dispensed into a 96 well plate at 50 ul/well. Then, the pre-mixed cocktail of antibody-coated magnetic beads was dispensed at 50 ul/well and incubated at room temperature for 2 h in a horizontal orbital microplate shaker at 800±500 rpm. The beads were washed using a magnetic device to prevent loss. The biotin-antibody was dispensed in 50 ul of each well and incubated at room temperature for 1 h in a shaker at 800±500 rpm. After washing, streptavidin-PE was added at 50 ul/well and incubated at room temperature for 30 min in a shaker under the same conditions. Finally, after washing, wash buffer (100 ul/well) was added to the plate and incubated in a shaker for 2 min. The Luminex™ 200 setting were set according to the manufacturer's protocol. The data was calculated with a standard five-parameter logistic nonlinear regression analysis of the data (xPonent software 4.2, USA). Results were presented as concentration (ng/ml or pg/ml).

Setting [1] is: PBMC + LPS(5 ug/ml), test article 0.005 nM.
The mark [2] stands for this setting: PBMC + LPS(5 ug/ml), test article 0.05 nM.
Where [3] appears, read: PBMC + LPS(5 ug/ml), test article 0.5 nM.
[4] abbreviates: PBMC + LPS(5 ug/ml), test article 5 nM.
[5] abbreviates: PBMC + LPS(5 ug/ml), test article 50 nM.
The mark [6] stands for this setting: PBMC + LPS(5 ug/ml), test article 500 nM.
[7] abbreviates: PBMC without LPS, test article 0.5 nM.
Setting [8] is: PBMC without LPS, test article 5 nM.
Setting [9] is: PBMC without LPS, test article 0.05 uM.
The mark [10] stands for this setting: PBMC without LPS, test article 50 nM.
[11] abbreviates: PBMC without LPS, test article 500 nM.

With `CC(C)C[C@H](NC(=O)CNC(=O)[C@H](CC(C)C)NC(=O)[C@H](CCC(N)=O)NC(=O)CNC(=O)[C@@H]1C[C@@H](O)CN1)C(=O)N[C@@H](C)C(=O)NCC(=O)N1CCC[C@H]1C(=O)N[C@@H](CCCCN)C(=O)O` [YDE-011] (H-[Hyp]GQLGLAGPK-OH), the “TIMP-1 Concentration (pg/ml), Mean” value is, setting by setting: under setting [1], 4036.4 pg/mL; under setting [2], 4288.3 pg/mL; under setting [3], 4080.2 pg/mL; under setting [4], 4128.5 pg/mL; under setting [5], 4253.6 pg/mL; under setting [6], 3820.5 pg/mL. Further, the “TIMP-1 Concentration (pg/ml), single replicates” value under setting [1] is 4259.2 pg/ml (2×) and 3590.9 pg/ml; the “TIMP-1 Concentration (pg/ml), single replicates” value under setting [2] was 4414.6 pg/mL and 3590.9 pg/mL and 4859.3 pg/mL; the “TIMP-1 Concentration (pg/ml), single replicates” value under setting [3] was 3590.9 pg/mL and 3935.4 pg/mL and 4714.4 pg/mL; the “TIMP-1 Concentration (pg/ml), single replicates” value under setting [4] is 4859.3 pg/mL and 3935.4 pg/mL and 3590.9 pg/mL; the “TIMP-1 Concentration (pg/ml), single replicates” value under setting [5] was 3935.4 pg/mL and 4259.2 pg/mL and 4566.3 pg/mL; the “TIMP-1 Concentration (pg/ml), single replicates” value under setting [6] is 3935.4 pg/ml (2×) and 3590.9 pg/ml.
For the molecule `CC(C)C[C@H](NC(=O)[C@H](CCC(N)=O)NC(=O)CNC(=O)[C@@H]1C[C@@H](O)CN1)C(=O)NCC(=O)O` [YDE-043] (H-[Hyp]GQLG-OH; N-terminus and C-terminus assumed), the “TIMP-1 Concentration (pg/ml), Mean” value came out at 4681.6 pg/mL under setting [1]; 4088.2 pg/mL under setting [2]; 4203.1 pg/mL under setting [3]; 4463.9 pg/mL under setting [4]; 4351.3 pg/mL under setting [5]; 4299.5 pg/mL under setting [6]. The “TIMP-1 Concentration (pg/ml), single replicates” value is 3935.4 pg/mL and 5543.0 pg/mL and 4566.3 pg/mL under setting [1]; 4259.2 pg/mL and 4414.6 pg/mL and 3590.9 pg/mL under setting [2]; 4259.2 pg/mL and 4414.6 pg/mL and 3935.4 pg/mL under setting [3]; 4566.3 pg/ml (2×) and 4259.2 pg/ml under setting [4]; 3935.4 pg/mL and 4859.3 pg/mL and 4259.2 pg/mL under setting [5]; 4566.3 pg/ml (2×) and 3766.0 pg/ml under setting [6].
For `CC(C)C[C@H](NC(=O)CNC(=O)[C@H](CC(=O)O)NC(=O)[C@H](CCC(N)=O)NC(=O)CNC(=O)[C@@H]1C[C@@H](O)CN1)C(=O)N[C@@H](C)C(=O)NCC(=O)N1CCC[C@H]1C(=O)N[C@@H](CCCCN)C(=O)O` [YY-101] (H-[Hyp]GQDGLAGPK-OH; N-terminus and C-terminus assumed), the “TIMP-1 Concentration (pg/ml), Mean” value by setting is: under setting [1], 3912.8 pg/mL; under setting [2], 3820.5 pg/mL; under setting [3], 4128.5 pg/mL; under setting [4], 3696.9 pg/mL; under setting [5], 3696.9 pg/mL; under setting [6], 3696.9 pg/mL. The “TIMP-1 Concentration (pg/ml), Mean” value was 6580.9 pg/mL under setting [7]; 6228.8 pg/mL under setting [8]; 8751.3 pg/mL under setting [9]; 6928.9 pg/mL under setting [10]; 7209.9 pg/mL under setting [11]. Also, the “TIMP-1 Concentration (pg/ml), single replicates” value reads like this: under setting [1], 4259.2 pg/ml (2×) and 3220.1 pg/ml; under setting [2], 3935.4 pg/ml (2×) and 3590.9 pg/ml; under setting [3], 3935.4 pg/mL and 3590.9 pg/mL and 4859.3 pg/mL; under setting [4], 3935.4 pg/ml (2×) and 3220.1 pg/ml; under setting [5], 3935.4 pg/ml (2×) and 3220.1 pg/ml; under setting [6], 3935.4 pg/ml (2×) and 3220.1 pg/ml. In addition, the “TIMP-1 Concentration (pg/ml), single replicates” value by setting is: under setting [7], 6173.1 pg/mL and 6988.8 pg/mL; under setting [8], 6531.0 pg/mL and 5926.6 pg/mL; under setting [9], 10402.5 pg/mL and 7100.2 pg/mL; under setting [10], 7210.4 pg/mL and 6647.4 pg/mL; under setting [11], 7100.2 pg/mL and 7319.6 pg/mL.
